From patent EP0973746B1, “SUBSTITUTED 3-CYANO QUINOLINES” (Wyeth Holdings Corporation, priority 1997, dated 1998)
Values after ≈ are worked out from the molar mass of the structure shown. Values joined by “and” are separate entries in the source; they are usually repeats but may differ in a detail not shown here. Identical values can stand only once. Like-named read-outs stand apart in the source and are kept apart here.

Columns and labels:
[1] = target: Epithelial Cell Kinase (ECK) (Homo sapiens, UniProt P29317); assay: biochemical
Method: In this standard pharmacological test procedure, a biotinylated peptide substrate is first immobilized on neutravidin-coated microtiter plates. The test drug, the Epithelial Cell Kinase (ECK), Mg^++, sodium vanadate (a protein tyrosine phosphatase inhibitor), and an appropriate buffer to maintain pH (7.2) are then added to the immobilized substrate-containing microtiter wells. ATP is then added to initiate phosphorylation. After incubation, the assay plates are washed with a suitable buffer leaving behind phosphorylated peptide which is exposed to horse radish peroxidase (HRP)-conjugated anti-phosphotyrosine monoclonal antibody. The antibody-treated plates are washed again and the HRP activity in individual wells is quantified as a reflection of degree of substrate phosphorylation.

[2] = target: recombinant human MEK 1 (MAPKK) and recombinant human ERK2 (MAPK); assay: Mitogen Activated Protein Kinase (MAPK) assay, two component coupled MEK 1 / ERK2; format: biochemical; conditions: separate entries for the same compound = evaluated more than one time;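 further: MEK 1-activated ERK2 phosphorylates MBP or Myc peptide with 33P-ATP, filter capture and scintillation counting, inhibitor preincubated with ERK2 30 min at 0 °C, inhibition relative to uninhibited control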
[3] = tested on: SW620; assay: Inhibition of cancer cell growth as measured by cell number, SW620; format: cell-based, human; conditions: Homo sapiens, SW-620, 48 h;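 further: SW620 was included as a cell line with little or no EGFR or HER2/neu expression, in contrast to receptor-overexpressing lines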
Source text: (§1) The cell lines were chosen since they overexpressed epidermal growth factor receptor (EGFR) (i.e. A431) or HER2/neu (SKBR3), or had little to no expression of the these receptors (SW620, LOX, MCF7).

[4] = tested on: A431; assay: Inhibition of cancer cell growth as measured by cell number, A431; format: cell-based, human; conditions: Homo sapiens, A-431, 48 h;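 further: human A431 line, picked because it overexpresses epidermal growth factor receptor (EGFR)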
Source text: as §1

[5] = tested on: SKBR3; assay: Inhibition of cancer cell growth as measured by cell number, SKBR3; format: cell-based, human; conditions: Homo sapiens, SK-BR-3, 48 h;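 further: SK-BR-3 cells were selected as a line overexpressing HER2/neu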
Source text: as §1

[6] = target: T1, His-tagged cytoplasmic domain of EGFR (Homo sapiens, UniProt P00533); assay: Inhibition of Epidermal Growth Factor Receptor Kinase (EGF-R) using recombinant enzyme; format: biochemical; conditions: recombinant enzyme; RR-SRC peptide; average of the number of tests; read-out: IC50;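 further: radiometric kinase assay measuring radiolabeled phosphate transfer from ATP onto the peptide tyrosine by scintillation counting, control is reaction without compound, background subtracted, IC50 from dose-response curve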
T1 construct: containing the EGFR cDNA encoding amino acids 645 - 1186 preceded by Met-Ala-(His)6; made in house; host or cells: Sf9 cells, recombinant baculovirus vHcEGFR52

[7] = tested on: MCF7; assay: Inhibition of cancer cell growth as measured by cell number, MCF7; format: cell-based, human; conditions: Homo sapiens, MCF7, 48 h, read-out: IC50 MCF7, cell number, Sulforhodamine B, 48 hours exposure; Table 8;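 further: MCF7 was included as a line with little or no EGFR or HER2/neu expression, in contrast to the receptor-overexpressing lines of the panel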
Source text: as §1

[8] = tested on: LOX; assay: Inhibition of cancer cell growth as measured by cell number, LOX; format: cell-based, human; conditions: Homo sapiens, LOX, 48 h, read-out: IC50 LOX, cell number, Sulforhodamine B, 48 hours exposure; Table 8;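 further: LOX cells served as a line with low or absent EGFR and HER2/neu expression, in contrast to receptor-overexpressing lines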
Source text: as §1

[9] = target: T2, Kinase insert Domain containing Receptor (KDR: the catalytic domain of the VEGF receptor) (Homo sapiens, UniProt P35968); assay: Inhibition of Kinase insert Domain containing Receptor (KDR); format: biochemical; conditions: pH 7.2; radioactive format; read-out: KDR IC50 (converted);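 further: KDR phosphorylating a Glu:Tyr 4:1 copolymer with P32- or P33-labelled ATP, Mg++ and vanadate, read as acid-insoluble radiolabel, compared with compound-free reaction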
T2 construct: KDR: the catalytic domain of the VEGF receptor
Method: In this standard pharmacological test procedure, KDR protein is mixed, in the presence or absence of a inhibitor compound, with a substrate peptide to be phosphorylated (a copolymer of glutamic acid and tyrosine, E:Y :: 4:1) and other cofactors such as Mg^++ and sodium vanadate (a protein tyrosine phosphatase inhibitor) in an appropriate buffer to maintain pH (7.2). ATP and a radioactive tracer (either P^32-or P^33- labeled ATP) is then add to initiate phosphorylation. After incubation, the radioactive phosphate associated with the acid-insoluble fraction of the assay mixture is then quantified as reflection of substrate phosphorylation.

[10] = tested on: human epidermoid tumors (A431); assay: In vivo inhibition of the growth of human epidermoid tumors (A431); conditions: for S/T = No. Survivors/No. Treated: Day +28 post tumor staging
Method: Representative compounds of this invention (listed below) were evaluated in an in vivo standard pharmacological test procedure which measured its ability to inhibit the growth of human epidermoid tumors. […] BALB/c nu/nu female mice (Charles River, Wilmington, MA) were used in this in vivo standard pharmacological test procedure. A unit of 5 X 10^6 cells were injected SC into mice. When tumors attained a mass of between 100 and 150 mg, the mice were randomized into treatment groups (day zero). […] Control animals received no drug. Tumor mass was determined every 7 days [(length X width^2)/2] for 28 days post staging. Relative tumor growth (Mean tumor mass on days 7, 14, 21, and 28 divided by the mean tumor mass on day zero) is determined for each treatment group.

[11] = read-out: IC50 SW620, cell number, Sulforhodamine B, 48 hours exposure, Table 8
[12] = read-out: IC50 A431, cell number, Sulforhodamine B, 48 hours exposure, Table 8
[13] = read-out: IC50 SKBR3, cell number, Sulforhodamine B, 48 hours exposure, Table 8
[14] = Table 10, 80 mg/kg/dose IP on days 1,5,9
[15] = Table 10, 80 mg/kg/dose PO on days 1 through 10
[16] = Table 11, 80 mg/kg/dose IP on days 1,5 and 9
[17] = Table 11, 80 mg/kg/dose PO on days 1 through 10

Epithelial Cell Kinase (ECK), sequence (P29317 24-976, species assumed): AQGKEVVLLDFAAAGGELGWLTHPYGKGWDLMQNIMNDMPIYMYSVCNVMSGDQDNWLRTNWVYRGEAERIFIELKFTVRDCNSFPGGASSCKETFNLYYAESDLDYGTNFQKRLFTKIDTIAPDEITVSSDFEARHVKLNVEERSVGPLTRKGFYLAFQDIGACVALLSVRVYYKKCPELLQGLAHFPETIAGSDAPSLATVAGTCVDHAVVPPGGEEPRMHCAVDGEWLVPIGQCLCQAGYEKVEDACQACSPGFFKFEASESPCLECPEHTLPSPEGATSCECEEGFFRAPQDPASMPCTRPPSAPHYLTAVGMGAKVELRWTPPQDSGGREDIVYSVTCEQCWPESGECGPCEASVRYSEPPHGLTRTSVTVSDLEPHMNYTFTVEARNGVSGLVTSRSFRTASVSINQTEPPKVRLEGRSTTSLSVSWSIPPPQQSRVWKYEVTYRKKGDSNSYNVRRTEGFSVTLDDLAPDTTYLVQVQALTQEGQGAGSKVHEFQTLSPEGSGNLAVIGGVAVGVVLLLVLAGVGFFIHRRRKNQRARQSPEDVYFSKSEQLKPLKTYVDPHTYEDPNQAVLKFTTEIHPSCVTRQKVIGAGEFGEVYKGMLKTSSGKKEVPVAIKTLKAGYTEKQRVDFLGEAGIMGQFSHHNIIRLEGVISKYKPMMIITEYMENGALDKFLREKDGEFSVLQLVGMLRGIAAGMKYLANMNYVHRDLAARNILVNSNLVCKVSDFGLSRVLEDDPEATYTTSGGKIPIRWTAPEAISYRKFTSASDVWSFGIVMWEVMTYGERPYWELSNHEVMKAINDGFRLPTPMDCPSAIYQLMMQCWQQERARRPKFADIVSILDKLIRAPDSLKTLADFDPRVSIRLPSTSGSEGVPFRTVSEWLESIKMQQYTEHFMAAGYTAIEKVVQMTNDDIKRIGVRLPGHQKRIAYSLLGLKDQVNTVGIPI
T2 sequence (P35968 834-1162 limits assumed): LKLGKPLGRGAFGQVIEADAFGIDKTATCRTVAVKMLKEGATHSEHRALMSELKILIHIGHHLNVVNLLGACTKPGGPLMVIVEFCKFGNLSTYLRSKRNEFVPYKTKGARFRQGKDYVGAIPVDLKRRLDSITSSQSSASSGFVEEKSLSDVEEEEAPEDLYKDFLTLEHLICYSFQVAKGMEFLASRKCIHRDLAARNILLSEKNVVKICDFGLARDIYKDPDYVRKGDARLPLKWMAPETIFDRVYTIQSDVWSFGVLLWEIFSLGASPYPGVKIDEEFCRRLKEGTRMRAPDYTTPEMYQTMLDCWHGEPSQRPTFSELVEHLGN
T1 sequence (P00533 669-1210): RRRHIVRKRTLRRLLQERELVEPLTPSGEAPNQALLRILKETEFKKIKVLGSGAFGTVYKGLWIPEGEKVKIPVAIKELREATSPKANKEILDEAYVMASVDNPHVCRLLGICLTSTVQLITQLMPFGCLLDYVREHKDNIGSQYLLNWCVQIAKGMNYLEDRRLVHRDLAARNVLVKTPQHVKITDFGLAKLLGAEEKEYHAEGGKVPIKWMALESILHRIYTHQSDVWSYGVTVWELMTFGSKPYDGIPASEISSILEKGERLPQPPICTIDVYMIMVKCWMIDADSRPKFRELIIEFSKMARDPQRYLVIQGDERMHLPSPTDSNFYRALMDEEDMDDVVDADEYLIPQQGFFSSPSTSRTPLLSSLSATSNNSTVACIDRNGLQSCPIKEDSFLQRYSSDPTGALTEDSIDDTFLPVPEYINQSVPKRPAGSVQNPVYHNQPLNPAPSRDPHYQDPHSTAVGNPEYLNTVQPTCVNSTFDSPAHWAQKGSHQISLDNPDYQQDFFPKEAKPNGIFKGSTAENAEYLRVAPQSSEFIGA

COc1ccc2c(Nc3cccc(Br)c3)c(C#N)cnc2c1 [Example 3, 4-[(3-Bromophenyl)amino]-7-methoxy-3-guinolinecarbonitrile]
IC50 [1]: 28.2 µM | IC50 [2]: > 100 µM

N#Cc1cnc2ccc(NC(=O)CCl)cc2c1Nc1cccc(Br)c1 [Example 19, N-[4-[(3-Bromophenyl)amino]-3-cyano-6-quinolinyl]-2-chloroacetamide]
IC50 [1]: 24.1 µM | IC50 [2]: 29 µM

N#Cc1cnc2cc(O)c(O)cc2c1Nc1cccc(Br)c1 [Example 39, 4-[(3-Bromophenyl)amino]-6,7-dihydroxy-3-quinolinecarbonitrile]
IC50 [1]: 28.1 µM | IC50 [2]: 40 µM

N#Cc1cnc2cc3c(cc2c1Nc1cccc(Br)c1)OCO3 [Example 40, 8-[(3-Bromophenyl)amino]-[1,3]-dioxolo[4,5-g]quinoline-7-carbonitrile]
IC50 [1]: 27.2 µM | IC50 [2]: > 100 µM

COc1cc2c(Nc3ccc(Cl)cc3F)c(C#N)cnc2cc1OCCCN1CCOCC1 [Example 81, 4-(4-Chloro-2-fluoro-phenylamino)-6-methoxy-7-(3-morpholin-4-yl-propoxy)-quinoline-3-carbonitrile]
IC50 [1]: 0.425 µM | IC50 [2]: 0.1 µM

CCN(CC)CC=CC(=O)Nc1ccc2ncc(C#N)c(Nc3cccc(Br)c3)c2c1 [Example 100, 4-Diethylamino-but-2-enoic acid [4-(3-bromophenylamino)-3-cyano-quinolin-6-yl]-amide]
IC50 ([3]; read-out: IC50 SW620): 0.8 µg/mL (≈ 1.67 µM) | IC50 ([4]; read-out: IC50 A431): 0.1 µg/mL (≈ 0.209 µM) | IC50 ([5]; read-out: IC50 SKBR3): 0.1 µg/mL (≈ 0.209 µM) | IC50 [1]: 41.8 µM | IC50 [2]: 20 µM

N#Cc1cnc2ccc(NC(=O)C=CCN3CCOCC3)cc2c1Nc1ccc(F)c(Cl)c1 [Example 147, N-{4-[(3-Chloro-4-fluorophenyl)amino]-3-cyano-6-quinolinyl} -4-morpholino-2-butenamide]
IC50 [1]: 43.1 µM | IC50 [2]: 80 µM

C=CC(=O)Nc1ccc2ncc(C#N)c(Nc3ccc(F)c(F)c3)c2c1 [Example 154, N-{3-Cyano-4-[(3,4-difluorophenyl)amino]-6-quinolinyl]-2-propenamide]
IC50 [6]: 0.15 µM | IC50 [3, 11]: 0.55 µg/mL (≈ 1.57 µM) | IC50 [7]: 2.57 µg/mL (≈ 7.34 µM) | IC50 [8]: 0.44 µg/mL (≈ 1.26 µM) | IC50 [4, 12]: 0.07 µg/mL (≈ 0.2 µM) | IC50 [5, 13]: 0.05 µg/mL (≈ 0.143 µM) | IC50 [9]: > 85.6 µM | IC50 [2]: 20 µM

N#Cc1cnc2ccc(NC(=O)C=CCN3CCOCC3)cc2c1Nc1ccc(F)c(Br)c1 [Example 174, N-{4-[(3-Bromo-4-fluorophenyl)amino]-3-cyano-6-quinolinyl] -4-morpholino-2-butenamide]
IC50 ([3]; read-out: IC50 SW620): > 5 µg/mL | IC50 [1]: 39.2 µM | IC50 [2]: 2.5 µM

CN1CCN(CC#CC(=O)Nc2ccc3ncc(C#N)c(Nc4cccc(Br)c4)c3c2)CC1 [Example 190, N-[4-[(3-Bromophenyl)amino]-3-cyano-6-quinolinyl]-4-(N-methylpiperazino)-2-butynamide]
IC50 [1]: 39.7 µM

CC(C)N(C)CC#CC(=O)Nc1ccc2ncc(C#N)c(Nc3cccc(Br)c3)c2c1 [Example 191, N-[4-[(3-Bromophenyl)amino]-3-cyano-6-quinolinyl]-4-(N-isopropyl-N-methylamino)-2-butynamide]
IC50 ([5]; read-out: IC50 SKBR3): 0.06 µg/mL (≈ 0.126 µM) | IC50 [1]: 42 µM

COc1cc2ncc(C#N)c(Nc3cccc(Br)c3)c2cc1NC(=O)C=CCN1CCOCC1 [Example 200, 4-Morpholin-4-yl-but-2-enoic acid [4-(3-bromo-phenylamino)-3-cyano-7-methoxy-quinolin-6-yl]-amide]
IC50 ([3]; read-out: IC50 SW620): > 5 µg/mL | IC50 [1]: 38.3 µM | IC50 [2]: > 100 µM

COc1cc2ncc(C#N)c(Nc3ccc(F)c(Cl)c3)c2cc1NC(=O)C=CCN(C)C [Example 203, 4-Dimethylamino-but-2-enoic acid [4-(3-chloro-4-fluorophenylamino)-3-cyano-7-methoxy-quinolin-6-yl]-amide]
%T/C Day 7 [10, 14]: 20% | %T/C Day 14 [10, 14]: 12% | %T/C Day 21 [10, 14]: 14% | %T/C Day 28 [10, 14]: 16% | S/T = No. Survivors/No. Treated [10, 14]: 5/5 | %T/C Day 7 [10, 15]: 15% | %T/C Day 14 [10, 15]: 8% | %T/C Day 21 [10, 15]: 12% | %T/C Day 28 [10, 15]: 17% | S/T = No. Survivors/No. Treated [10, 15]: 4/5 | IC50 [1]: 2.2 µM | IC50 [2]: < 1 µM and 0.8 µM

CCN(CC)CC=CC(=O)Nc1cc2c(Nc3ccc(F)c(Cl)c3)c(C#N)cnc2cc1OC [Example 204, 4-Diethylamino-but-2-enoic acid [4-(3-chloro-4-fluorophenylamino)-3-cyano-7-methoxy-quinolin-6-yl]-amide]
%T/C Day 7 [10, 14]: 45% | %T/C Day 14 [10, 14]: 42% | %T/C Day 21 [10, 14]: 55% | %T/C Day 28 [10, 14]: 49% | S/T = No. Survivors/No. Treated [10, 14]: 5/5 | %T/C Day 7 [10, 15]: 25% | %T/C Day 14 [10, 15]: 18% | %T/C Day 21 [10, 15]: 43% | %T/C Day 28 [10, 15]: 51% | S/T = No. Survivors/No. Treated [10, 15]: 4/5 | IC50 [1]: 20.7 µM | IC50 [2]: 35 µM

COc1cc2ncc(C#N)c(Nc3ccc(F)c(Cl)c3)c2cc1NC(=O)C=CCN1CCOCC1 [Example 205, 4-Morpholin-4-yl-but-2-enoic acid [4-(3-chloro-4-fluorophenylamino)-3-cyano-7-methoxy-quinolin-6-yl]-amide]
%T/C Day 7 [10, 14]: 30% | %T/C Day 14 [10, 14]: 25% | %T/C Day 21 [10, 14]: 38% | %T/C Day 28 [10, 14]: 61% | S/T = No. Survivors/No. Treated [10, 14]: 5/5 | %T/C Day 7 [10, 15]: 23% | %T/C Day 14 [10, 15]: 19% | %T/C Day 21 [10, 15]: 23% | %T/C Day 28 [10, 15]: 29% | S/T = No. Survivors/No. Treated [10, 15]: 5/5 | IC50 [1]: 40.4 µM | IC50 [2]: > 100 µM

COc1cc2ncc(C#N)c(Nc3ccc(F)c(Br)c3)c2cc1NC(=O)C=CCN(C)C [Example 208, 4-Dimethylamino-but-2-enoic acid [4-(3-bromo-4-fluorophenylamino)-3-cyano-7-methoxy-quinolin-6-yl]-amide]
IC50 [6]: 0.0015 µM | IC50 [3, 11]: 0.453 µg/mL (≈ 0.909 µM) | IC50 [4, 12]: 0.067 µg/mL (≈ 0.134 µM) | IC50 [5, 13]: 0.038 µg/mL (≈ 0.0763 µM) | %T/C Day 7 [10, 16]: 14% | %T/C Day 14 [10, 16]: 15% | %T/C Day 21 [10, 16]: 26% | %T/C Day 28 [10, 16]: 32% | S/T = No. Survivors/No. Treated [10, 16]: 5/5 | %T/C Day 7 [10, 17]: 6% | %T/C Day 14 [10, 17]: 6% | %T/C Day 21 [10, 17]: 8% | %T/C Day 28 [10, 17]: 10% | S/T = No. Survivors/No. Treated [10, 17]: 5/5 | IC50 [9]: 20.1 µM | IC50 [2]: 13 µM

CCOc1cc2ncc(C#N)c(Nc3cccc(Br)c3)c2cc1NC(=O)C=CCN(CC)CC [Example 217, 4-Diethylamino-but-2-enoic acid [4-(3-bromo-phenylamino)-3-cyano-7-ethoxy-quinolin-6-yl]-amide]
%T/C Day 7 [10, 16]: 25% | %T/C Day 14 [10, 16]: 36% | %T/C Day 21 [10, 16]: 51% | %T/C Day 28 [10, 16]: 56% | S/T = No. Survivors/No. Treated [10, 16]: 5/5 | %T/C Day 7 [10, 17]: 30% | %T/C Day 14 [10, 17]: 33% | %T/C Day 21 [10, 17]: 43% | %T/C Day 28 [10, 17]: 42% | S/T = No. Survivors/No. Treated [10, 17]: 5/5 | IC50 [1]: 0.115 µM

COc1ccc2ncc(C#N)c(Nc3ccc(Cl)cc3F)c2c1 [Example 283, 4-(4-Chloro-2-fluoro-phenylamino)-6-methoxy-quinoline-3-carbonitrile]
IC50 [1]: 9.15 µM | IC50 [2]: > 100 µM

COc1ccc2ncc(C#N)c(Nc3ccc(C)c(O)c3)c2c1 [Example 284, 4-(3-Hydroxy-4-methyl-phenylamino)-6-methoxy-quinoline-3-carbonitrile]
IC50 [1]: 32.8 µM | IC50 [2]: 4 µM
